Laboratory results reported in patent US20230085307A1, “PYRIDAZINONE COMPOUND AND HERBICIDE” (NISSAN CHEMICAL CORPORATION, priority 2019, published 2023).

Columns and labels:
[1] = tested on: Japanese bulrush; assay: Test Example 1: herbicidal activity, application before weed generation under submerged conditions (Table 16, symbol B); format: in vivo, Japanese bulrush (Schoenoplectus juncoides)
Procedure, shortened: (§1)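 Emulsion formulation, water-diluted to set dose, was put onto the flooded surface (4 cm depth, alluvial soil) the same day weeds were sown and 2.5-leaf rice transplanted. After 3 weeks at 25-30 °C under glass, each species was rated 0 (≤5% kill) to 5 (≥90% kill).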

[2] = tested on: barnyard grass; assay: Test Example 5: herbicidal effect by foliage application, plastic box (Table 20, symbol H); format: in vivo, barnyard grass (Echinochloa crus-galli); conditions: foliage application, 320 g/ha
Procedure, shortened: (§2)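 Plants were sown into sterilized diluvial soil under about 1.5 cm cover and kept in a greenhouse at 25° C. to 30° C. Fourteen days on, foliage received an even spray of the diluted emulsion. Herbicidal or crop effect was judged three weeks afterwards.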

[3] = tested on: chickweed; assay: Test Example 4: herbicidal effect by soil treatment (Table 19, symbol P); format: in vivo, common chickweed (Stellaria media)
Procedure, shortened: (§3)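 In this soil treatment, the formulated compound reached the seeds only through the soil: seeds were buried about 1.5 cm deep in sterilized diluvial soil, then the diluted emulsion was sprayed over the surface. After three weeks at 25° C. to 30° C. in a greenhouse, effects were graded on criteria from an earlier test.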

[4] = tested on: rice flat sedge; assay: Test Example 3: herbicidal effect by foliage application, Wagner pot (Table 18, symbol E); format: in vivo, rice flat sedge (Cyperus iria); conditions: 320 g/ha
Procedure, shortened: (§4)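 Plants were sown in alluvial soil held under 0.1–0.5 cm standing water and grown 14 days in a greenhouse at 25–30 °C. An emulsifiable formulation, water-diluted to the set dose, was then sprayed onto the foliage, and effects were scored three weeks later using previously defined criteria.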

[5] = tested on: persian speedwell; assay: Test Example 5: herbicidal effect by foliage application, plastic box (Table 20, symbol R); format: in vivo, Persian speedwell (Veronica persica); conditions: foliage application, 320 g/ha
Procedure, shortened: as §2

[6] = tested on: windgrass; assay: Test Example 5: herbicidal effect by foliage application, plastic box (Table 20, symbol L); format: in vivo, windgrass (Apera spica-venti); conditions: foliage application, 320 g/ha
Procedure, shortened: as §2

[7] = tested on: wild oat; assay: Test Example 5: herbicidal effect by foliage application, plastic box (Table 20, symbol I); format: in vivo, wild oat (Avena fatua); conditions: foliage application, 320 g/ha
Procedure, shortened: as §2

[8] = tested on: windgrass; assay: Test Example 4: herbicidal effect by soil treatment (Table 19, symbol L); format: in vivo, windgrass (Apera spica-venti); conditions: 320 g/ha
Procedure, shortened: as §3

[9] = tested on: blackgrass; assay: Test Example 4: herbicidal effect by soil treatment (Table 19, symbol J); format: in vivo, blackgrass (Alopecurus myosuroides)
Procedure, shortened: as §3

[10] = tested on: chickweed; assay: Test Example 5: herbicidal effect by foliage application, plastic box (Table 20, symbol P); format: in vivo, common chickweed (Stellaria media); conditions: foliage application, 320 g/ha, evaluated three weeks after application
Procedure, shortened: as §2

[11] = tested on: green foxtail; assay: Test Example 4: herbicidal effect by soil treatment (Table 19, symbol G); format: in vivo, green foxtail (Setaria viridis)
Procedure, shortened: as §3

[12] = tested on: blackgrass; assay: Test Example 5: herbicidal effect by foliage application, plastic box (Table 20, symbol J); format: in vivo, blackgrass (Alopecurus myosuroides); conditions: foliage application, 320 g/ha
Procedure, shortened: as §2

[13] = tested on: barnyard grass; assay: Test Example 4: herbicidal effect by soil treatment (Table 19, symbol H); format: in vivo, barnyard grass (Echinochloa crus-galli)
Procedure, shortened: as §3

[14] = tested on: redroot pigweed; assay: Test Example 5: herbicidal effect by foliage application, plastic box (Table 20, symbol N); format: in vivo, redroot pigweed (Amaranthus retroflexus); conditions: foliage application, 320 g/ha, evaluated three weeks after application
Procedure, shortened: as §2

[15] = tested on: wild oat; assay: Test Example 4: herbicidal effect by soil treatment (Table 19, symbol I); format: in vivo, wild oat (Avena fatua)
Procedure, shortened: as §3

[16] = tested on: southern crabgrass; assay: Test Example 5: herbicidal effect by foliage application, plastic box (Table 20, symbol F); format: in vivo, southern crabgrass (Digitaria ciliaris); conditions: foliage application, 320 g/ha
Procedure, shortened: as §2

[17] = tested on: redroot pigweed; assay: Test Example 4: herbicidal effect by soil treatment (Table 19, symbol N); format: in vivo, redroot pigweed (Amaranthus retroflexus)
Procedure, shortened: as §3

[18] = tested on: velvetleaf; assay: Test Example 4: herbicidal effect by soil treatment (Table 19, symbol M); format: in vivo, velvetleaf (Abutilon theophrasti)
Procedure, shortened: as §3

[19] = tested on: lambsquarters; assay: Test Example 4: herbicidal effect by soil treatment (Table 19, symbol O); format: in vivo, lambsquarters (Chenopodium album)
Procedure, shortened: as §3

[20] = tested on: velvetleaf; assay: Test Example 5: herbicidal effect by foliage application, plastic box (Table 20, symbol M); format: in vivo, velvetleaf (Abutilon theophrasti); conditions: foliage application, 320 g/ha
Procedure, shortened: as §2

[21] = tested on: barnyard grass; assay: Test Example 3: herbicidal effect by foliage application, Wagner pot (Table 18, symbol H); format: in vivo, barnyard grass (Echinochloa crus-galli); conditions: 320 g/ha
Procedure, shortened: as §4

[22] = tested on: late watergrass; assay: Test Example 1: herbicidal activity, application before weed generation under submerged conditions (Table 16, symbol A); format: in vivo, late watergrass (Echinochloa oryzicola)
Procedure, shortened: as §1

[23] = tested on: Italian ryegrass; assay: Test Example 4: herbicidal effect by soil treatment (Table 19, symbol K); format: in vivo, Italian ryegrass (Lolium multiflorum)
Procedure, shortened: as §3

[24] = tested on: green foxtail; assay: Test Example 5: herbicidal effect by foliage application, plastic box (Table 20, symbol G); format: in vivo, green foxtail (Setaria viridis); conditions: foliage application, 320 g/ha
Procedure, shortened: as §2

[25] = tested on: southern crabgrass; assay: Test Example 4: herbicidal effect by soil treatment (Table 19, symbol F); format: in vivo, southern crabgrass (Digitaria ciliaris)
Procedure, shortened: as §3

[26] = tested on: Chinese sprangletop; assay: Test Example 3: herbicidal effect by foliage application, Wagner pot (Table 18, symbol D); format: in vivo, chinese sprangletop (Leptochloa chinensis); conditions: 320 g/ha
Procedure, shortened: as §4

[27] = tested on: oval-leafed pondweed; assay: Test Example 1: herbicidal activity, application before weed generation under submerged conditions (Table 16, symbol C); format: in vivo, oval-leafed pondweed (Monochoria vaginalis)
Procedure, shortened: as §1

[28] = tested on: Italian ryegrass; assay: Test Example 5: herbicidal effect by foliage application, plastic box (Table 20, symbol K); format: in vivo, Italian ryegrass (Lolium multiflorum); conditions: foliage application, 320 g/ha
Procedure, shortened: as §2

[29] = tested on: lambsquarters; assay: Test Example 5: herbicidal effect by foliage application, plastic box (Table 20, symbol O); format: in vivo, lambsquarters (Chenopodium album); conditions: foliage application, 320 g/ha
Procedure, shortened: as §2

[30] = tested on: persian speedwell; assay: Test Example 4: herbicidal effect by soil treatment (Table 19, symbol R); format: in vivo, Persian speedwell (Veronica persica); conditions: amount of applied herbicide 320 g/ha
Procedure, shortened: as §3

[31] = evaluated three weeks after application
[32] = amount of applied herbicide 320 g/ha

Structure (SMILES): Cc1nn(C)c(=O)c(-c2c(-c3ccc(OS(=O)(=O)C(F)(F)F)cc3)sc3ccc(F)cc23)c1O [2-075]
- Herbicidal effect on B: Japanese bulrush (grade 0-5) ([1]; 320 g/ha applied herbicide): 2 (Herbicidal rate of 20% or more and less than 40%)
- herbicidal effect on H: barnyard grass [2, 31]: 0 (Herbicidal rate of 5% or less (almost no effect))
- herbicidal effect rating, P: chickweed ([3]; 320 g/ha): 0 (Herbicidal rate of 5% or less (almost no effect))
- herbicidal effect on E (rice flat sedge), rating 0-5 [4]: 4 (Herbicidal rate of 70% or more and less than 90%)
- herbicidal effect on R: persian speedwell [5, 31]: 5 (Herbicidal rate of 90% or more (almost completely withered))
- herbicidal effect on L: windgrass [6, 31]: 0 (Herbicidal rate of 5% or less (almost no effect))
- herbicidal effect on I: wild oat [7, 31]: 0 (Herbicidal rate of 5% or less (almost no effect))
- herbicidal effect rating, L: windgrass [8]: 0 (Herbicidal rate of 5% or less (almost no effect))
- herbicidal effect rating, J: blackgrass ([9]; 320 g/ha): 0 (Herbicidal rate of 5% or less (almost no effect))
- herbicidal effect on P: chickweed [10]: 3 (Herbicidal rate of 40% or more and less than 70%)
- herbicidal effect rating, G: green foxtail ([11]; 320 g/ha): 0 (Herbicidal rate of 5% or less (almost no effect))
- herbicidal effect on J: blackgrass [12, 31]: 0 (Herbicidal rate of 5% or less (almost no effect))
- herbicidal effect rating, H: barnyard grass ([13]; 320 g/ha): 0 (Herbicidal rate of 5% or less (almost no effect))
- herbicidal effect on N: redroot pigweed [14]: 2 (Herbicidal rate of 20% or more and less than 40%)
- herbicidal effect rating, I: wild oat ([15]; 320 g/ha): 0 (Herbicidal rate of 5% or less (almost no effect))
- herbicidal effect on F: southern crabgrass [16, 31]: 0 (Herbicidal rate of 5% or less (almost no effect))
- herbicidal effect rating, N: redroot pigweed ([17]; 320 g/ha): 1 (Herbicidal rate of 5% or more and less than 20%)
- herbicidal effect rating, M: velvetleaf ([18]; 320 g/ha): 0 (Herbicidal rate of 5% or less (almost no effect))
- herbicidal effect rating, O: lambsquarters ([19]; 320 g/ha): 3 (Herbicidal rate of 40% or more and less than 70%)
- herbicidal effect on M: velvetleaf [20, 31]: 3 (Herbicidal rate of 40% or more and less than 70%)
- herbicidal effect on H (barnyard grass), rating 0-5 [21]: 2 (Herbicidal rate of 20% or more and less than 40%)
- Herbicidal effect on A: late watergrass (grade 0-5) ([22]; 320 g/ha applied herbicide): 2 (Herbicidal rate of 20% or more and less than 40%)
- herbicidal effect rating, K: Italian ryegrass ([23]; 320 g/ha): 0 (Herbicidal rate of 5% or less (almost no effect))
- herbicidal effect on G: green foxtail [24, 31]: 0 (Herbicidal rate of 5% or less (almost no effect))
- herbicidal effect rating, F: southern crabgrass ([25]; 320 g/ha): 0 (Herbicidal rate of 5% or less (almost no effect))
- herbicidal effect on D (Chinese sprangletop), rating 0-5 [26]: 2 (Herbicidal rate of 20% or more and less than 40%)
- Herbicidal effect on C: oval-leafed pondweed (grade 0-5) ([27]; 320 g/ha applied herbicide): 0 (Herbicidal rate of 5% or less (almost no effect))
- herbicidal effect on K: Italian ryegrass [28, 31]: 0 (Herbicidal rate of 5% or less (almost no effect))
- herbicidal effect on O: lambsquarters [29, 31]: 3 (Herbicidal rate of 40% or more and less than 70%)

Structure (SMILES): COc1cc2sc(-c3ccccc3OC)c(-c3c(O)c(C)nn(C)c3=O)c2cc1F [5-064]
- Herbicidal effect, B: Japanese bulrush [1, 32]: 0 (Herbicidal rate of 5% or less (almost no effect))
- herbicidal effect on barnyard grass (H) ([2]; three weeks after application): 4 (Herbicidal rate of 70% or more and less than 90%)
- P: chickweed, herbicidal effect grade [3, 32]: 4 (Herbicidal rate of 70% or more and less than 90%)
- herbicidal effect on rice flat sedge (E) [4]: 5 (Herbicidal rate of 90% or more (almost completely withered))
- herbicidal effect on persian speedwell (R) ([5]; three weeks after application): 5 (Herbicidal rate of 90% or more (almost completely withered))
- herbicidal effect on windgrass (L) ([6]; three weeks after application): 5 (Herbicidal rate of 90% or more (almost completely withered))
- herbicidal effect on wild oat (I) ([7]; three weeks after application): 4 (Herbicidal rate of 70% or more and less than 90%)
- J: blackgrass, herbicidal effect grade [9, 32]: 1 (Herbicidal rate of 5% or more and less than 20%)
- G: green foxtail, herbicidal effect grade [11, 32]: 4 (Herbicidal rate of 70% or more and less than 90%)
- herbicidal effect on blackgrass (J) ([12]; three weeks after application): 4 (Herbicidal rate of 70% or more and less than 90%)
- H: barnyard grass, herbicidal effect grade [13, 32]: 4 (Herbicidal rate of 70% or more and less than 90%)
- I: wild oat, herbicidal effect grade [15, 32]: 0 (Herbicidal rate of 5% or less (almost no effect))
- herbicidal effect on southern crabgrass (F) ([16]; three weeks after application): 4 (Herbicidal rate of 70% or more and less than 90%)
- N: redroot pigweed, herbicidal effect grade [17, 32]: 4 (Herbicidal rate of 70% or more and less than 90%)
- M: velvetleaf, herbicidal effect grade [18, 32]: 2 (Herbicidal rate of 20% or more and less than 40%)
- R: persian speedwell, herbicidal effect grade [30]: 5 (Herbicidal rate of 90% or more (almost completely withered))
- O: lambsquarters, herbicidal effect grade [19, 32]: 3 (Herbicidal rate of 40% or more and less than 70%)
- herbicidal effect on velvetleaf (M) ([20]; three weeks after application): 4 (Herbicidal rate of 70% or more and less than 90%)
- herbicidal effect on barnyard grass (H) [21]: 5 (Herbicidal rate of 90% or more (almost completely withered))
- Herbicidal effect, A: late watergrass [22, 32]: 2 (Herbicidal rate of 20% or more and less than 40%)
- K: Italian ryegrass, herbicidal effect grade [23, 32]: 0 (Herbicidal rate of 5% or less (almost no effect))
- herbicidal effect on green foxtail (G) ([24]; three weeks after application): 5 (Herbicidal rate of 90% or more (almost completely withered))
- F: southern crabgrass, herbicidal effect grade [25, 32]: 3 (Herbicidal rate of 40% or more and less than 70%)
- herbicidal effect on Chinese sprangletop (D) [26]: 2 (Herbicidal rate of 20% or more and less than 40%)
- Herbicidal effect, C: oval-leafed pondweed [27, 32]: 0 (Herbicidal rate of 5% or less (almost no effect))
- herbicidal effect on Italian ryegrass (K) ([28]; three weeks after application): 3 (Herbicidal rate of 40% or more and less than 70%)
- herbicidal effect on lambsquarters (O) ([29]; three weeks after application): 3 (Herbicidal rate of 40% or more and less than 70%)
